Earlier results on one compound are cited in patent US20240350480A1, “STABLE PHARMACEUTICAL COMPOSITION OF METHYLNALTREXONE FOR AN ORAL ADMINISTRATION” (Lupin Limited, priority 2023, published 2024).

For the data set the following is noted: oral administration.

`C[N+]1(CC2CC2)CC[C@]23c4c5ccc(O)c4O[C@H]2C(=O)CC[C@@]3(O)[C@H]1C5.[Br-]` (stereo partly shown) [methylnaltrexone]: the “Methylnaltrexone absorbed into the bloodstream” value is “less than 5%”.
